Results reported in patent publication US20220144775A1, “HYDRAZIDE COMPOUND AND KINASE INHIBITOR” (NISSAN CHEMICAL CORPORATION, priority 2019, published 2022).

Legend:
LATS1 = molecular target: T1, LATS1 (Homo sapiens, UniProt O95835); assay: Kinase inhibitory activity against LATS1 (ADP quantification); format: biochemical; details: ATP 400 μM, read-out: kinase inhibitory rate
T1 construct: purchased Carna Biosciences
T1 sequence (O95835 1-1130): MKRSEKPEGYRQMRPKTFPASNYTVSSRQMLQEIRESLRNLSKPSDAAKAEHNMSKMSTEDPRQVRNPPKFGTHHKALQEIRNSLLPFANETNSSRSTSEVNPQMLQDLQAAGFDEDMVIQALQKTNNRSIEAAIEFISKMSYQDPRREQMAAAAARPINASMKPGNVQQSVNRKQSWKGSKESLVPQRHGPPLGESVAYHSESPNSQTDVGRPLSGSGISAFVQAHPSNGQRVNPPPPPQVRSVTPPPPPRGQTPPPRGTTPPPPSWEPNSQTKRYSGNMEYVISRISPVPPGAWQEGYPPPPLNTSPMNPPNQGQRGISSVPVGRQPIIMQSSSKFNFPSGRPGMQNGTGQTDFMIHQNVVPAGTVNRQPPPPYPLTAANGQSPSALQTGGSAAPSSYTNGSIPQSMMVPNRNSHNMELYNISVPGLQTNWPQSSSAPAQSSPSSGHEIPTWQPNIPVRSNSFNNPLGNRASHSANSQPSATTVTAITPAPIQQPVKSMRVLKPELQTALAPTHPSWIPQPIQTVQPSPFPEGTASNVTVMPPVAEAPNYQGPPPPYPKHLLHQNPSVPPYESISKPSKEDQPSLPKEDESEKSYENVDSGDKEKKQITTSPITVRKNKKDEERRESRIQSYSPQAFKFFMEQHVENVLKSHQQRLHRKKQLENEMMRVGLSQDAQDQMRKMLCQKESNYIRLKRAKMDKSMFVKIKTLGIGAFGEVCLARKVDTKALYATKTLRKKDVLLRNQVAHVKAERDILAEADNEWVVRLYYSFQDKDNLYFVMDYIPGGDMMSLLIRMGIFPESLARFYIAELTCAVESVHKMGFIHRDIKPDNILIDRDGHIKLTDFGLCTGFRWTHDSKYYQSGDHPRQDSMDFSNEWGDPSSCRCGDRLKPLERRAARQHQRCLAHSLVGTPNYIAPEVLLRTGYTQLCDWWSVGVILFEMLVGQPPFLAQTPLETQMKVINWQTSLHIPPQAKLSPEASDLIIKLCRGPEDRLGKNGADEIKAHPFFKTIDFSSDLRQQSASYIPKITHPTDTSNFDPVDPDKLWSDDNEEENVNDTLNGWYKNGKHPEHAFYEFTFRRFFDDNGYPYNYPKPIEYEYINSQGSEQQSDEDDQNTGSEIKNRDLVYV
Procedure: (§1) Evaluation of the inhibitory activity (calculation of kinase inhibitory rate) of the compound of the present invention against LATS1 and LATS2 (manufactured by Carna Biosciences) was performed. The activity was measured using the Kinase Assay method described below. The test concentration of the compound of the present invention was set such that the final concentration was 100 nM or 1000 nM.
(§2) As the analysis method of the data, the mean signal of the control well containing reaction components other than the compound of the present invention was set to 0% inhibition, the mean signal without enzyme addition was set to 100% inhibition, and the inhibition rate was calculated from the mean signal of 2 wells of each compound.
(§3) 2 μL of a compound of the present invention solution at 2.5-fold concentration, 1 μL of substrate at 5-fold concentration (SGKtide: NH2-CKKRNRRLSVA-COOH, manufactured by SignalChem), ATP (manufactured by Sigma-Aldrich), MgCl2 (manufactured by FUJIFILM Wako Pure Chemical Corporation) solution (final concentration 10 μM, 400 μM and 5 mM, respectively), and 2 μL of kinase solution at 2.5-fold concentration (final concentration of LATS1 or LATS2 5 μg/mL), each prepared with assay buffer (20 mM HEPES, 0.01% Triton X-100, 2 mM DTT, 50 μg/mL BSA, pH 7.5), were mixed in the wells of a polypropylene 384-well plate (manufactured by Greiner Bio-One, #784900) and reacted at room temperature for 5 hr. To the solution was added 5 μL detection solution [Fluorospark (registered trade mark) Kinase/ADP Multi-Assay Kit; manufactured by FUJIFILM Wako Pure Chemical Corporation], and the mixture was reacted at room temperature for 30 min. Successively, 5 μL of a reaction quenching liquid [Fluorospark (registered trade mark) Kinase/ADP Multi-Assay Kit; manufactured by FUJIFILM Wako Pure Chemical Corporation] was added to discontinue the reaction. Thereafter, the ADP concentration of the reaction solution was quantified by EnSpire (manufactured by PerkinElmer) to detect the kinase reaction.

LATS2 = molecular target: T2, LATS2 (Homo sapiens, UniProt Q9NRM7); assay: Kinase inhibitory activity against LATS2 (ADP quantification); format: biochemical; details: ATP 400 μM, read-out: kinase inhibitory rate
T2 construct: purchased Carna Biosciences
T2 sequence (Q9NRM7 1-1088): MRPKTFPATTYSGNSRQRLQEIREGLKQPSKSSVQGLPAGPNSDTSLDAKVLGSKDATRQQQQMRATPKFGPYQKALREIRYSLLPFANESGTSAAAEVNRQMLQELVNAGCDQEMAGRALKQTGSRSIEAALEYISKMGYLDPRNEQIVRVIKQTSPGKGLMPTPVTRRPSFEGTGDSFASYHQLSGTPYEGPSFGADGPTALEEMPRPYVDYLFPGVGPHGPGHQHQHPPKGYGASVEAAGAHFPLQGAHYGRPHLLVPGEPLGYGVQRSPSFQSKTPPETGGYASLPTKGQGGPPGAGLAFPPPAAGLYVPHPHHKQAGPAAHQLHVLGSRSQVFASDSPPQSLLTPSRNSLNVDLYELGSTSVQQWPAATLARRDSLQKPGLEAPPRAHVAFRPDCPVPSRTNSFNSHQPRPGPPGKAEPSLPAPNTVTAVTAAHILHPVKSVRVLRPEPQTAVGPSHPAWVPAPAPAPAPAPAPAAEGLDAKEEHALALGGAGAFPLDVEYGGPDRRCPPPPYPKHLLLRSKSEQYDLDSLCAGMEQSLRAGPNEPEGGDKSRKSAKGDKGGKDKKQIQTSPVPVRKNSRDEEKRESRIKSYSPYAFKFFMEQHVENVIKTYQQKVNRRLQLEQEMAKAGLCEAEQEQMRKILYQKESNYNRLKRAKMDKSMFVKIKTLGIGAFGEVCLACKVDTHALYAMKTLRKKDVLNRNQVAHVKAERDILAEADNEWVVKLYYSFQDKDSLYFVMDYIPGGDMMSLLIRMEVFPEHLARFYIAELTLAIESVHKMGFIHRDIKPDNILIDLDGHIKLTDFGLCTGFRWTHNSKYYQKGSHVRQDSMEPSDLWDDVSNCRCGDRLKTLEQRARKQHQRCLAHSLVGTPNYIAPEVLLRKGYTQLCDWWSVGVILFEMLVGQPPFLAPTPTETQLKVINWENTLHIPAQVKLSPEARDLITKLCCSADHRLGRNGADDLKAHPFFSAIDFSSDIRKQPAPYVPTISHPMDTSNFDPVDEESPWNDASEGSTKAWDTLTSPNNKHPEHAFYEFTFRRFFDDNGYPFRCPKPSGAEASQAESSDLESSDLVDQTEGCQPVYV
Procedure: as §1, §2, §3

inhibition at 0.1 µM (LATS1; final concentration 100 nM): ≥ 40%
inhibition at 1 µM (LATS1; final concentration 1000 nM): ≥ 40%
inhibition at 0.1 µM (LATS2; final concentration 100 nM): ≥ 40%
inhibition at 1 µM (LATS2; final concentration 1000 nM): ≥ 40%
Structure (SMILES): CC/C(=N\NC(=O)C(C)Nc1cccnc1)c1ccc(O)c(C)c1O (stereo not shown) [A-004, (E)-N′-(1-(2,4-dihydroxy-3-methylphenyl)propylidene)-2-(pyridin-3-ylamino)propanehydrazide]
